Measurements published in PubChem BioAssay AID1963967 (Molecular Pharmacology Branch, DTP, NCI, 2024).

System: 855422-203-R-J1-PDC spheroids with HUVEC/MSC, viability
Assay: Anticancer human tumor 855422-203-R-J1-PDC patient-derived bladder carcinoma cell line growth inhibition [PI3K]
Details: for IC50: curve of first compound; for viability, T/C: stronger effect = lower value
Outline: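 Agents were dosed from a top concentration near clinical Cmax (otherwise 10 microM) in half-log decrements, alone or combined with PI3K inhibitors. The spheroids contain tumor cells plus endothelial (HUVEC) and MSC stroma; viability is measured.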

[1] = second compound 0.0316 µM, first compound 0.0316 µM
[2] = second compound 0.0316 µM, first compound 0.1 µM
[3] = second compound 0.0316 µM, first compound 0.316 µM
[4] = second compound 0.0316 µM, first compound 1 µM
[5] = second compound 0.0316 µM, first compound 3.16 µM
[6] = second compound 0.0316 µM, first compound 10 µM
[7] = second compound 0.1 µM, first compound 0.0316 µM
[8] = second compound 0.1 µM, first compound 0.1 µM
[9] = second compound 0.1 µM, first compound 0.316 µM
[10] = second compound 0.1 µM, first compound 1 µM
[11] = second compound 0.1 µM, first compound 3.16 µM
[12] = second compound 0.1 µM, first compound 10 µM
[13] = second compound 0.316 µM, first compound 0.0316 µM
[14] = second compound 0.316 µM, first compound 0.1 µM
[15] = second compound 0.316 µM, first compound 0.316 µM
[16] = second compound 0.316 µM, first compound 1 µM
[17] = second compound 0.316 µM, first compound 3.16 µM
[18] = second compound 0.316 µM, first compound 10 µM
[19] = second compound 1 µM, first compound 0.0316 µM
[20] = second compound 1 µM, first compound 0.1 µM
[21] = second compound 1 µM, first compound 0.316 µM
[22] = second compound 1 µM, first compound 1 µM
[23] = second compound 1 µM, first compound 3.16 µM
[24] = second compound 1 µM, first compound 10 µM
[25] = second compound 3.16 µM, first compound 0.0316 µM
[26] = second compound 3.16 µM, first compound 0.1 µM
[27] = second compound 3.16 µM, first compound 0.316 µM
[28] = second compound 3.16 µM, first compound 1 µM
[29] = second compound 3.16 µM, first compound 3.16 µM
[30] = second compound 3.16 µM, first compound 10 µM
[31] = second compound 10 µM, first compound 0.0316 µM
[32] = second compound 10 µM, first compound 0.1 µM
[33] = second compound 10 µM, first compound 0.316 µM
[34] = second compound 10 µM, first compound 1 µM
[35] = second compound 10 µM, first compound 3.16 µM
[36] = second compound 10 µM, first compound 10 µM
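Also: agents incubated with spheroids for one week before read-out.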
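For viability, T/C in this document: 100% = DMSO vehicle-treated control wells.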

**Q.** Which results are given for `CCCS(=O)(=O)Nc1ccc(F)c(C(=O)c2c[nH]c3ncc(-c4ccc(Cl)cc4)cc23)c1F` + CC(Nc1ncnc2nc[nH]c12)c1cc2cccc(Cl)c2c(=O)n1-c1ccccc1?
**A.** IC50 (second compound 0.0316 µM): 3.7 µM; IC50 (second compound 0.1 µM): 3.69 µM; IC50 (second compound 0.316 µM): 4.35 µM; IC50 (second compound 1 µM): 4.64 µM; IC50 (second compound 3.16 µM): 4.24 µM; IC50 (second compound 10 µM): 3.69 µM; viability, T/C [1]: 118%; viability, T/C [2]: 88.6%; viability, T/C [3]: 102%; viability, T/C [4]: 85.9%; viability, T/C [5]: 59%; viability, T/C [6]: 0.26%; viability, T/C [7]: 110%; viability, T/C [8]: 109%; viability, T/C [9]: 103%; viability, T/C [10]: 88.1%; viability, T/C [11]: 58.1%; viability, T/C [12]: 0.13%; viability, T/C [13]: 100%; viability, T/C [14]: 97.9%; viability, T/C [15]: 90.7%; viability, T/C [16]: 88.4%; viability, T/C [17]: 70.4%; viability, T/C [18]: 0.12%; viability, T/C [19]: 92.8%; viability, T/C [20]: 98.2%; viability, T/C [21]: 98%; viability, T/C [22]: 91.6%; viability, T/C [23]: 75%; viability, T/C [24]: 0.2%; viability, T/C [25]: 89.2%; viability, T/C [26]: 100%; viability, T/C [27]: 99.7%; viability, T/C [28]: 78.2%; viability, T/C [29]: 70%; viability, T/C [30]: 0.61%; viability, T/C [31]: 87%; viability, T/C [32]: 83.4%; viability, T/C [33]: 77.8%; viability, T/C [34]: 76.9%; viability, T/C [35]: 58.2%; viability, T/C [36]: 0.42%

**Q.** For `C[C@@H](NC(=O)c1ncnc(N)c1Cl)c1ncc(C(=O)Nc2cc(C(F)(F)F)c(Cl)cn2)s1` + CC(Nc1ncnc2nc[nH]c12)c1cc2cccc(Cl)c2c(=O)n1-c1ccccc1, which IC50 (second compound 0.0316 µM) is on record?
**A.** Its IC50 is > 10 µM.

**Q.** What about the IC50 (second compound 0.1 µM) of the same compound?
**A.** Its IC50 is > 10 µM.

**Q.** What about the IC50 (second compound 0.316 µM) of the same compound?
**A.** The IC50 was > 10 µM.

**Q.** What about the IC50 (second compound 1 µM) of the same compound?
**A.** The IC50 was > 10 µM.

**Q.** And the IC50 (second compound 3.16 µM)?
**A.** The IC50 was > 10 µM.

**Q.** What about the IC50 (second compound 10 µM) of the same compound?
**A.** The IC50 was > 10 µM.

**Q.** And the viability, T/C [1]?
**A.** Its viability, T/C is 120%.

**Q.** What about the viability, T/C [2] of the same compound?
**A.** Its viability, T/C is 109%.

**Q.** What about the viability, T/C [3] of the same compound?
**A.** Its viability, T/C is 109%.

**Q.** What about the viability, T/C [4] of the same compound?
**A.** Its viability, T/C is 116%.

**Q.** What about the viability, T/C [5] of the same compound?
**A.** The viability, T/C was 131%.

**Q.** What about the viability, T/C [6] of the same compound?
**A.** The viability, T/C was 117%.

**Q.** And the viability, T/C [7]?
**A.** The viability, T/C was 112%.

**Q.** And the viability, T/C [8]?
**A.** The viability, T/C was 100%.

**Q.** And the viability, T/C [9]?
**A.** Its viability, T/C is 111%.

**Q.** And the viability, T/C [10]?
**A.** Its viability, T/C is 114%.

**Q.** What about the viability, T/C [11] of the same compound?
**A.** The viability, T/C was 116%.

**Q.** And the viability, T/C [12]?
**A.** The viability, T/C was 133%.

**Q.** And the viability, T/C [13]?
**A.** Its viability, T/C is 100%.

**Q.** What about the viability, T/C [14] of the same compound?
**A.** The viability, T/C was 115%.

**Q.** And the viability, T/C [15]?
**A.** Its viability, T/C is 105%.

**Q.** And the viability, T/C [16]?
**A.** Its viability, T/C is 103%.

**Q.** And the viability, T/C [17]?
**A.** The viability, T/C was 136%.

**Q.** What about the viability, T/C [18] of the same compound?
**A.** Its viability, T/C is 109%.

**Q.** And the viability, T/C [19]?
**A.** Its viability, T/C is 85.2%.

**Q.** And the viability, T/C [20]?
**A.** The viability, T/C was 102%.

**Q.** What about the viability, T/C [21] of the same compound?
**A.** Its viability, T/C is 101%.

**Q.** What about the viability, T/C [22] of the same compound?
**A.** The viability, T/C was 106%.

**Q.** What about the viability, T/C [23] of the same compound?
**A.** Its viability, T/C is 120%.

**Q.** And the viability, T/C [24]?
**A.** The viability, T/C was 107%.

**Q.** What about the viability, T/C [25] of the same compound?
**A.** Its viability, T/C is 94.8%.

**Q.** What about the viability, T/C [26] of the same compound?
**A.** Its viability, T/C is 108%.

**Q.** And the viability, T/C [27]?
**A.** Its viability, T/C is 94.3%.

**Q.** And the viability, T/C [28]?
**A.** The viability, T/C was 93.3%.

**Q.** And the viability, T/C [29]?
**A.** Its viability, T/C is 106%.

**Q.** And the viability, T/C [30]?
**A.** The viability, T/C was 82.7%.

**Q.** What about the viability, T/C [31] of the same compound?
**A.** Its viability, T/C is 82.7%.

**Q.** And the viability, T/C [32]?
**A.** Its viability, T/C is 75.7%.

**Q.** What about the viability, T/C [33] of the same compound?
**A.** Its viability, T/C is 93%.

**Q.** What about the viability, T/C [34] of the same compound?
**A.** Its viability, T/C is 85.6%.

**Q.** And the viability, T/C [35]?
**A.** The viability, T/C was 69.6%.

**Q.** And the viability, T/C [36]?
**A.** Its viability, T/C is 54.4%.

**Q.** What does the source list for `Cn1ncnc1[C@H]1c2n[nH]c(=O)c3cc(F)cc(c23)N[C@@H]1c1ccc(F)cc1` + CC(Nc1ncnc2nc[nH]c12)c1cc2cccc(Cl)c2c(=O)n1-c1ccccc1?
**A.** IC50 (second compound 0.0316 µM): > 0.1 µM; IC50 (second compound 0.1 µM): > 0.1 µM; IC50 (second compound 0.316 µM): > 0.1 µM; IC50 (second compound 1 µM): > 0.1 µM; IC50 (second compound 3.16 µM): > 0.1 µM; IC50 (second compound 10 µM): > 0.1 µM; viability, T/C (second compound 0.0316 µM, first compound 0.000316 µM): 107%; viability, T/C (second compound 0.0316 µM, first compound 0.001 µM): 98%; viability, T/C (second compound 0.0316 µM, first compound 0.00316 µM): 106%; viability, T/C (second compound 0.0316 µM, first compound 0.01 µM): 97.8%; viability, T/C [1]: 109%; viability, T/C [2]: 100%; viability, T/C (second compound 0.1 µM, first compound 0.000316 µM): 121%; viability, T/C (second compound 0.1 µM, first compound 0.001 µM): 104%; viability, T/C (second compound 0.1 µM, first compound 0.00316 µM): 113%; viability, T/C (second compound 0.1 µM, first compound 0.01 µM): 101%; viability, T/C [7]: 111%; viability, T/C [8]: 104%; viability, T/C (second compound 0.316 µM, first compound 0.000316 µM): 106%; viability, T/C (second compound 0.316 µM, first compound 0.001 µM): 107%; viability, T/C (second compound 0.316 µM, first compound 0.00316 µM): 121%; viability, T/C (second compound 0.316 µM, first compound 0.01 µM): 102%; viability, T/C [13]: 110%; viability, T/C [14]: 107%; viability, T/C (second compound 1 µM, first compound 0.000316 µM): 106%; viability, T/C (second compound 1 µM, first compound 0.001 µM): 107%; viability, T/C (second compound 1 µM, first compound 0.00316 µM): 110%; viability, T/C (second compound 1 µM, first compound 0.01 µM): 104%; viability, T/C [19]: 104%; viability, T/C [20]: 104%; viability, T/C (second compound 3.16 µM, first compound 0.000316 µM): 96.6%; viability, T/C (second compound 3.16 µM, first compound 0.001 µM): 92%; viability, T/C (second compound 3.16 µM, first compound 0.00316 µM): 97.9%; viability, T/C (second compound 3.16 µM, first compound 0.01 µM): 105%; viability, T/C [25]: 105%; viability, T/C [26]: 104%; viability, T/C (second compound 10 µM, first compound 0.000316 µM): 88.3%; viability, T/C (second compound 10 µM, first compound 0.001 µM): 85%; viability, T/C (second compound 10 µM, first compound 0.00316 µM): 78.4%; viability, T/C (second compound 10 µM, first compound 0.01 µM): 87%; viability, T/C [31]: 89.5%; viability, T/C [32]: 82.3%
